The values that follow come from patent US12433876B2, “Septin inhibitors for treatment of cancers” (UNIVERSITY OF ROCHESTER, priority 2019, dated 2025).

Type in all cases: cell-based
Assay [1] deals with endometrial (ECC-1 and KLE) and ovarian (HCH-1, OVCAR-3, and SKOV-3) cancer cell lines. In words: MTS cell viability, gynecologic cancer cell line panel. The protocol: Cell lines, Culture, and Reagents. Cells were maintained in either DMEM (SKOV-3, KLE, OVCAR-3, OVCAR8-C5 and IGROV-1) or RPMI-1640 (ECC-1 and HCH-1), supplemented with 10% fetal calf serum (or 20% for OVCAR-3), penicillin (100 units/mL), and streptomycin (100 μg/mL) at 37° C. with 5% CO2 in a humidified incubator. Antibodies were purchased from Abcam (septin-2; ab179436) and Cell Signaling Technology; ERK (9102), p-ERK (4370), -actin (3700), u-Tubulin (2144), EGFR (4267) and HER2 (4290). FCF was purchased from Abcam. All other chemicals were from Sigma Aldrich. Synthesis of Derivaties. […] The reaction was monitored using thin-layer chromatography plates with DCM-MeOH or pure ethyl acetate as eluent. Spots were monitored in a UV chamber. The reaction mixture, upon completion of the reaction, was poured into wet ice mixture and triturated, then the separated solid was filtered by vacuum. The product was washed with hexane, followed by diethyl ether, and was dried under vacuum. The compounds were characterized by spectrophotometric techniques. Quantitative Real-Time PCR. The indicated cell lines were transfected with siRNA targeting septin-2 or non-targeting control siRNA (Santa Cruz Biotechnology: sc-37007 or sc-40936) using Lipofectamine 3000 (Invitrogen). Tri reagent and Direct-zol kit (Zymo Research) were used to lyse and isolate total RNA. Reverse transcription was performed using iScript cDNA synthesis kit (BioRad), both following the manufacturer's recommendations. Quantitative real-time PCR was conducted using QuantStudio 12 K Flex Real-Time PCR System (ABI) and the Taqman Gene Expression Assay (ABI) consisting of the FAM-labeled probes as follows: SEPT2 (Hs01565417_ml); WFDC2 (Hs00899484_ml); TBP (Hs00427620_ml) or B2M (Hs00187842_ml), which was used as reference for normalization. Cell Viability, Proliferation and Apoptosis Assay. Cell viability, proliferation, and cellular apoptosis were measured using the MTS (Promega), BrdU cell proliferation (Cell Signaling Technology), and Caspase-Glo 3/7 apoptosis detection (Promega) assays, following the respective manufacturer's recommendations with suitable modification. Enzyme-Linked Immunosorbent Assay (ELISA) and Immunoblotting. Cells were maintained overnight in the culture media described above. […] Following the treatment, cell lysates and supernatants were collected and subjected to HE4 assay (Human HE4 Quantikine ELISA Kit, R&D Systems). The amount of HE4 in supernatant was normalized to the protein concentration of matching cell lysate. The levels of HER2 were determined by Human Total ErbB2/Her2 DuoSet IC ELISA (R&D systems. Wester blot analysis was conducted using the protocol previously published (see Kim, K. K. et al. Tetrathiomolybdate inhibits mitochondrial complex IV and mediates degradation of hypoxia-inducible factor-1alpha in cancer cells. Sci. Rep. 5, 14296, 2015). Data Acquisition and Statistical Analysis. Gene expression profiling of septins, comparing microdissected normal ovarian stroma (N=8) against that of tumor stroma samples (N=31) from high grade serous ovarian cancer patients, was obtained from Mixed Ovarian Cancer (CAFs)-Wong-77-u133p2 data-set through ‘R2: Genomics Analysis and Visualization Platform (http://r2/am/n1). Mean values with SD were plotted and compared using Student t-test (two tail, unpaired heteroscedastic t-test, significant difference when p<0.01). The prognostic assessment of septin-2 amongst different cancers or septins in endometrial cancer was conducted using TCGA data acquired through Human Protein Atlas (http://www.proteinatlas.org) (see Uhlen, M. et al. Towards a knowledge-based Human Protein Atlas. Nat. Biotechnol. 28, 1248-1250, 2010). Survival curves between septin high and low population and their statistical significance were analyzed using GraphPad Prism software (Mantel-Cox test). […] Structural Modification of FCF. […]

The test system of assay [2] is ECC-1 cells. In words: MTS cell viability, ECC-1. To be noted: ECC-1, 48 hours. Here is the method: (§1) Cell lines, Culture, and Reagents. Cells were maintained in either DMEM (SKOV-3, KLE, OVCAR-3, OVCAR8-C5 and IGROV-1) or RPMI-1640 (ECC-1 and HCH-1), supplemented with 10% fetal calf serum (or 20% for OVCAR-3), penicillin (100 units/mL), and streptomycin (100 μg/mL) at 37° C. with 5% CO2 in a humidified incubator. Antibodies were purchased from Abcam (septin-2; ab179436) and Cell Signaling Technology; ERK (9102), p-ERK (4370), -actin (3700), u-Tubulin (2144), EGFR (4267) and HER2 (4290). FCF was purchased from Abcam. All other chemicals were from Sigma Aldrich. Synthesis of Derivaties. […] The reaction was monitored using thin-layer chromatography plates with DCM-MeOH or pure ethyl acetate as eluent. Spots were monitored in a UV chamber. The reaction mixture, upon completion of the reaction, was poured into wet ice mixture and triturated, then the separated solid was filtered by vacuum. The product was washed with hexane, followed by diethyl ether, and was dried under vacuum. The compounds were characterized by spectrophotometric techniques. Quantitative Real-Time PCR. The indicated cell lines were transfected with siRNA targeting septin-2 or non-targeting control siRNA (Santa Cruz Biotechnology: sc-37007 or sc-40936) using Lipofectamine 3000 (Invitrogen). […] Quantitative real-time PCR was conducted using QuantStudio 12 K Flex Real-Time PCR System (ABI) and the Taqman Gene Expression Assay (ABI) consisting of the FAM-labeled probes as follows: SEPT2 (Hs01565417_ml); WFDC2 (Hs00899484_ml); TBP (Hs00427620_ml) or B2M (Hs00187842_ml), which was used as reference for normalization. […] Cell viability, proliferation, and cellular apoptosis were measured using the MTS (Promega), BrdU cell proliferation (Cell Signaling Technology), and Caspase-Glo 3/7 apoptosis detection (Promega) assays, following the respective manufacturer's recommendations with suitable modification. […] Survival curves between septin high and low population and their statistical significance were analyzed using GraphPad Prism software (Mantel-Cox test). […]

Assay [3] concerns ECC-1 cells. In words: BrdU cell proliferation assay. To be noted: ECC-1, 48 hours. Here is the method:
as §1

A further assay has as its system HER2. In words: Western blot of HER2 expression in ECC-1 and HCH-1 cells. To be noted: UR214-7 33 μM, UR214-9 33 μM, FCF 300 μM, 24 hours. Here is the method: as §1
A general note: Immunoblotting shows a protein as a band on a membrane.

Values joined by “and” are separate entries in the source; they are usually repeats but may differ in a detail not shown here. Identical values can stand only once.

Consider `O=C(Nc1ccccc1)Nc1ccnc(Cl)c1` [FCF, N-(2-chloro-4-pyridyl)-N′-phenylurea, reference compound], for which the cell viability result in assay [1] (FCF 0, 100, 300 μM, 24 or 72 hours, time- and dose-dependent (FIG. 1)) is “reduced the viability”. Also, the viability entry with ECC-1 cells [2] (MTS, lower dose ranges) is listed as “lacked activity”. Also, the proliferation entry with ECC-1 cells [3] (BrdU, lower dose ranges) was “lacked activity”. Also, in the assay with HER2, the HER2 expression entry was “inhibition of HER2 expression”.

Take `O=C(Nc1cc(Cl)nc(Cl)c1)Nc1cccc(SC(F)(F)F)c1F` [UR214-9]: the “viability of tumor cells, dose-dependent (FIG. 2E)” value in assay [1] (72 hours, MTS) is reported as “potent activity across most cell lines”. For the same molecule, in assay [1] (at considerably lower doses than FCF), the “proliferation in multiple endometrial and ovarian cancer cells” value was “blocked proliferation”. The concentration inhibiting viability result with ECC-1 cells [2] (MTS (FIG. 2B)) is given as “around 33 μM”. Besides, the concentration inhibiting proliferation in the assay with ECC-1 cells [3] (BrdU (FIG. 2B)) is ~4 µM and 4 to 5 µM. For the same molecule, the HER2 expression result in the assay with HER2 is recorded as “inhibition of HER2 expression”.
